# Data: ChEMBL document CHEMBL1126462, “CP-99,711: a non-peptide glucagon receptor antagonist” (Bioorg Med Chem Lett, 1992)
# What was measured:
# [1] = species on record: Rattus norvegicus; test: Tested for its ability to increase cAMP production (in the absence of glucagon) in rat liver homogenates; no measurable agonist activity; type: functional
# [2] = target: Glucagon receptor (Rattus norvegicus, UniProt P30082); test: Tested against glucagon receptor for its ability to displace radiolabeled ([125I]-glucagon) in […] liver
# Sequence of Glucagon receptor (P30082 whole entry): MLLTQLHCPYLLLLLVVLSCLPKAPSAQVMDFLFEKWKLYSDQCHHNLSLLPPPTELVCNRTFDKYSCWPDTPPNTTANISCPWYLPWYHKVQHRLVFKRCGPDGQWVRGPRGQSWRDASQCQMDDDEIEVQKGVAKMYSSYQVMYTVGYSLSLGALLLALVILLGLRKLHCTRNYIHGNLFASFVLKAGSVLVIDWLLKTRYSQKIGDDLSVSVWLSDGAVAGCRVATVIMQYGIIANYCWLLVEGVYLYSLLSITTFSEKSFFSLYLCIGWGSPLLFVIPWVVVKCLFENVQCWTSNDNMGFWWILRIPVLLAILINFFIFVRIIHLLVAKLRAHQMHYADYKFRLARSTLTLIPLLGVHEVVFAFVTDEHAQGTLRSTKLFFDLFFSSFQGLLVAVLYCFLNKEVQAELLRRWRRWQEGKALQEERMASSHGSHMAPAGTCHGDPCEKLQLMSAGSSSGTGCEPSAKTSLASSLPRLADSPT
# [3] = species on record: Rattus norvegicus; test: Inhibitory concentration against glucagon receptor -stimulated cAMP production in rat liver homogenates; type: functional
smiles,measurement,setting,value
CN(C)CCCN(C)c1nc2cc(Cl)c(Cl)cc2nc1/C=C/c1ccccc1,IC50,[1],> 32 µM
same,IC50,[2],4 µM
same,IC50,[3],7 µM
